Assay results published in patent US9918999B2, “Method for preparing a medical solution for the manufacture of a medicament for peritoneal dialysis” (FRESENIUS MEDICAL CARE DEUTSCHLAND GMBH, priority 2002, dated 2018).

Experiments:
cultured cells = experiment: in vitro inhibition of cell growth (ICG) in cultured cells; type: cell-based
Description: Experiments in which measurements of the percentage of inhibition of cell growth (ICG) and fluorescence have been made at varying pH values and NAG concentrations during terminal heat sterilisation are illustrated in FIGS. 1-3. The results of the experiments imply that the pH of the amino sugar containing solution should be decreased from the neutral level and that, in a preferred embodiment of the invention, also the concentration of the amino sugar/sugars should be optimised.
(§1) A simple, reliable and known way to study the cytotoxicity of substances or of medical fluids is to test proliferation as in vitro inhibition of cell growth (ICG) in cultured cells. Another method to get a rough estimation of the amount of amino sugars that is rearranged is measurement of the fluorescence.

[1] = fluorescence of heat sterilised NAG containing solutions; type: physicochemical; settings: terminally heat sterilised solution, excitation 350 nm, emission 430 nm, FIG. 3
Description: as §1

[2] = degradation during heat sterilisation (pH change, HPLC of 3-DG and 3,4-DGE); type: physicochemical
Description: NAG and other amino sugars have a major difference from glucose and glucose-like compounds by having one amino group and possibly an acetyl group coupled to the glucose ring. […] It should be noted that the decomposition pattern for an amino sugar solution during heat sterilisation follows specific Maillard reactions giving several different toxic decomposition products. The decomposition pattern differs for e.g. a glucose solution during heat sterilisation, wherein different decomposition products are formed. This difference is illustrated in FIGS. 4a-4d, showing chromatograms when analysing 3-DG and 3,4-DGE in a NAG solution and in a glucose solution, respectively. The difference in degradation is likely due to that the NAG molecules contains groups that allows the Maillard reaction to take place and therefore create a large number of degradation products not seen in a glucose solution.

[3] = test system: human peritoneal mesothelial cells and fibroblasts; settings: cited from earlier work
peritoneum = settings: rats, chronic peritoneal dialysis; cited from earlier work

| Compound | percentage inhibition of cell growth, effect of NAG concentration (cultured cells; NAG 30% vs 1.5% during terminal heat sterilisation, all three pH values, FIG. 2) | cytotoxicity after heat sterilisation (cultured cells; conventional medical solutions) | pH of sterilisation at which inhibition of cell growth reaches a minimum (cultured cells; solution containing 1.5% NAG, FIG. 1) | percentage inhibition of cell growth, effect of pH (cultured cells; terminal heat sterilisation at pH 3.0, 5.5 and 7.2, FIG. 2) | pH at which the lowest fluorescence is seen [1] | change of pH of the solution during sterilisation [2] | known glucose degradation products in heat sterilised solution ([2]; heat sterilised NAG solutions) | production of hyaluronan and sulphated glycosaminoglycans [3] | effect on the peritoneum of a supplemented dialysis solution (peritoneum) |
| --- | --- | --- | --- | --- | --- | --- | --- | --- | --- |
| CC(=O)N[C@H]1C(O)O[C@H](CO)[C@@H](O)[C@@H]1O (stereo partly shown) [NAG, N-acetylglucosamine] | lower after a terminal heat sterilisation at a NAG concentration of 30% than at a NAG concentration of 1.5% | increased cytotoxicity after heat sterilisation | 2.5-3.5 | lower after terminal heat sterilisation at a pH of 3.0 than at a pH of 5.5 and 7.2 | ~4 | increases during sterilisation | none of the known glucose degradation products has been found | rapidly stimulates the production of hyaluronan and sulphated glycosaminoglycans | causes accumulation of glucosaminoglycans in the peritoneal interstitium, resulting in a favorable change of the peritoneal permeability |
| hyaluronan [reference compound] | – | – | – | – | – | – | – | – | function of the peritoneum as a dialysis membrane is better preserved |
